Converted amounts (≈) assume the structure as drawn. Where two headings read alike, the source gives them in different places.
Tests used:
[1] = system: S. aureus ATCC29213; settings: cited from earlier work
[2] = system: E. coli ATCC25922; assay: antibiotic susceptibility testing on the array microfluidic chip (redox indicator discoloration); assay type: cell-based, Escherichia coli; settings: for MIC: Escherichia coli, read-out: minimum inhibitory concentration (MIC)
Text: (§1) In the present experiment, the array microfluidic chip of the present disclosure is used to perform the antibiotic susceptibility testing on Escherichia coli ATCC25922 (“E. coli ATCC25922” hereafter) and Staphylococcus aureus ATCC29213 (“S. aureus ATCC29213” hereafter) to three antibiotics, namely Amikacin, Gentamicin and Vancomycin.
(§2) In the experiment, the dried powders of Amikacin, Gentamicin or Vancomycin are respectively placed in different reaction wells of the array microfluidic chip with different contents, and then the array microfluidic chip is sealed and keeps refrigerated. Next, redox indicators with proper amounts are respectively added to the bacteria-containing mediums including E. coli ATCC25922 or S. aureus ATCC29213, and the bacteria-containing mediums are transported to different reaction wells of different array microfluidic chips and then mixed with the antibiotic powders with different contents thereof so as to form the reaction solutions including different concentrations of antibiotics.
Next, the array microfluidic chips are placed in the incubator and cultured at 37° C., and the antibiotic susceptibilities of E. coli ATCC25922 and S. aureus ATCC29213 to Amikacin, Gentamicin and Vancomycin are further assessed based on the discoloration of the reaction solutions. In detail, if E. coli ATCC25922 and S. aureus ATCC29213 can grow under the existence of a specific antibiotic with a particular concentration, the color of the reaction solution including the redox indicator will gradually change from blue to purple, and eventually to pink, and the discoloration can be observed on the array microfluidic chip directly. Therefore, the assessing time of the method of antibiotic susceptibility testing of the present disclosure can be greatly shortened.
Please refer to FIG. 10A, FIG. 10B, FIG. 10C and Table 2 simultaneously. […] Furthermore, in FIG. 10C, the far left one is the image of the independent well performed a negative control test, and it is noted that the testing result of the independent well is not shown in Table 2. […]

[3] = system: E. coli ATCC25922; settings: cited from earlier work
[4] = system: S. aureus ATCC29213; assay: antibiotic susceptibility testing on the array microfluidic chip (redox indicator discoloration); assay type: cell-based, Staphylococcus aureus; settings: 5 hours and 30 minutes
Text: as §1, §2
Next, the array microfluidic chips are placed in the incubator and cultured at 37° C., and the antibiotic susceptibilities of E. coli ATCC25922 and S. aureus ATCC29213 to Amikacin, Gentamicin and Vancomycin are further assessed based on the discoloration of the reaction solutions. […]

Row | Compound | CLSI standard value MIC [1] | minimum inhibitory concentration (MIC) ([2]; array microfluidic chip, 37° C., 4 hours) | CLSI standard value MIC [3] | minimum inhibitory concentration ([4]; 37° C.) | MIC ([2]; ATCC25922, 4 h) | MIC ([2]; ATCC25922, array microfluidic chip, 37° C., 4 hours) | MIC ([4]; Staphylococcus aureus, ATCC29213, 37° C., read-out: minimum inhibitory concentration)
1 | Gentamicin | 0.12˜1 μg/mL | 1 µg/mL | 0.251 µg/mL | 0.25 µg/mL | – | – | –
2 | CN[C@H](CC(C)C)C(=O)N[C@H]1C(=O)N[C@@H](CC(N)=O)C(=O)N[C@H]2C(=O)N[C@H]3C(=O)N[C@H](C(=O)N[C@H](C(=O)O)c4cc(O)cc(O)c4-c4cc3ccc4O)[C@H](O)c3ccc(c(Cl)c3)Oc3cc2cc(c3O[C@@H]2O[C@H](CO)[C@@H](O)[C@H](O)[C@H]2O[C@H]2C[C@](C)(N)[C@H](O)[C@H](C)O2)Oc2ccc(cc2Cl)[C@H]1O [Vancomycin] | 0.5˜2 μg/mL | – | R-resistance | – | > 16 µg/mL | – | –
3 | NCC[C@H](O)C(=O)N[C@@H]1C[C@H](N)[C@@H](O[C@H]2O[C@H](CN)[C@@H](O)[C@H](O)[C@H]2O)[C@H](O)[C@H]1O[C@H]1O[C@H](CO)[C@@H](O)[C@H](N)[C@H]1O [Amikacin] | 1˜4 μg/mL | – | 0.5˜4 μg/mL | – | – | 1 µg/mL (≈ 1.71 µM) | 1 µg/mL (≈ 1.71 µM)

— patent US12263479B2, “Array microfluidic chip and method of antibiotic susceptibility testing” (MEDFLUID CO., LTD., priority 2021, dated 2025)
